As usually defined, the IC50 is the point on the concentration scale where inhibition reaches its midpoint.

The target of one assay is T1, NLRP3 inflammasome (Mus musculus, UniProt Q8R4B8).
T1 construct: endogenous in cells; host or cells: primary microglia from cortices of 2-3 day old WT mouse pups
In words: NLRP3 inflammasome activation assay: IL-1β release by primary microglia after LPS and ATP. Particulars: for inhibition of IL-1β release upon NLRP3 activation: 100 μM compound; for inhibition of IL-1β release upon NLRP3 activation / IC50: microglia, LPS and ATP; for IC50: IL-1β release, nonlinear fit of dose-response, read-out: IC50; for remaining activity at 100 µM: microglia cultures pretreated with 100 μM compound before NLRP3 activation with LPS and ATP, read-out: % Residual activity (percentage of IL-1β, referred to control). The assay is classed as cell-based, murine. Here is the method:
Murine primary microglia. Mixed cortical cultures were prepared as previously described (Bronstein, R. et al. J. Vis. Exp. JoVE 50647 (2013) doi:10.3791/50647). Briefly, cortices from 2-3 days old, WT, or NLRP3 KO pups were isolated, digested, and seeded at a density of 8 cortices per 10 ml petri dish. Every three days, the medium was replaced by fresh culture medium (DMEM, 10% FBS, 1% penicillin-streptomycin). After three weeks, mixed glial cultures had reached confluence, and microglia cells were isolated by mild trypsinization as previously described (Saura, J. et al. Glia 44, 183-189 (2003)). In brief, cells were washed with culture medium without FBS and treated with a mixture of trypsin 0.25% (without EDTA) and DMEM-F12 medium in a 1:3 proportion. After an incubation period of approximately 40 min, an intact layer of mixed glial cells detached, leaving microglia attached firmly to the bottom of the Petri-dish. Pure microglia were then isolated by 15 min incubation with trypsin (0.05%)-EDTA at 37° C., followed by gentle shaking. Cells were counted and seeded at the desired density, typically 7.5·10^4 cells/well in 24 well-plates.
NLRP3 inflammasome activation assay. Primary microglia cultures were incubated with the compounds that inhibited IL-1β production in THP1 macrophages. Cells pretreated with 100 μM of the compounds—or with the same DMSO volume, in the case of control samples—were primed with 400 ng/ml LPS for 3 hours, and activated with 4.5 mM ATP for 45 minutes or […] nigericin for 1 hour. Dose-response curves were conducted by incubating microglia cultures with different concentrations of the selected compounds, ranging from 0.001 to 100 μM, 1 hour before NLRP3 activation with LPS and ATP. Supernatants were collected for IL-1β and toxicity assessments.
(§1) Cytokine quantification. IL-1β in cell supernatants and brain tissue samples—after the different treatment groups—was quantified using the Mouse IL-1 beta/IL-1F2 DuoSet ELISA kit (R&D systems), IL-6 in cell culture supernatant was measured through the Mouse IL-6 ELISA kit (ThermoFisher), TNF-α in cell culture supernatants was determined using the Mouse TNF-alpha DuoSet ELISA (R*D systems), and IL-18 in brain tissue was measured through the IL-18 Mouse ELISA Kit (Invitrogen) following the manufacturers' recommended protocol. IL-1β precursor and cleaved IL-1β in the FC of mice treated with vehicles, LPS, or C77-LPS was assessed by western blot. All samples were run in technical duplicates.

The next assay deals with T2, NLRC4 inflammasome (Mus musculus, UniProt Q3UP24).
T2 construct: endogenous in cells; host or cells: primary microglia from NLRP3 KO mice
T2 sequence (Q3UP24 whole entry): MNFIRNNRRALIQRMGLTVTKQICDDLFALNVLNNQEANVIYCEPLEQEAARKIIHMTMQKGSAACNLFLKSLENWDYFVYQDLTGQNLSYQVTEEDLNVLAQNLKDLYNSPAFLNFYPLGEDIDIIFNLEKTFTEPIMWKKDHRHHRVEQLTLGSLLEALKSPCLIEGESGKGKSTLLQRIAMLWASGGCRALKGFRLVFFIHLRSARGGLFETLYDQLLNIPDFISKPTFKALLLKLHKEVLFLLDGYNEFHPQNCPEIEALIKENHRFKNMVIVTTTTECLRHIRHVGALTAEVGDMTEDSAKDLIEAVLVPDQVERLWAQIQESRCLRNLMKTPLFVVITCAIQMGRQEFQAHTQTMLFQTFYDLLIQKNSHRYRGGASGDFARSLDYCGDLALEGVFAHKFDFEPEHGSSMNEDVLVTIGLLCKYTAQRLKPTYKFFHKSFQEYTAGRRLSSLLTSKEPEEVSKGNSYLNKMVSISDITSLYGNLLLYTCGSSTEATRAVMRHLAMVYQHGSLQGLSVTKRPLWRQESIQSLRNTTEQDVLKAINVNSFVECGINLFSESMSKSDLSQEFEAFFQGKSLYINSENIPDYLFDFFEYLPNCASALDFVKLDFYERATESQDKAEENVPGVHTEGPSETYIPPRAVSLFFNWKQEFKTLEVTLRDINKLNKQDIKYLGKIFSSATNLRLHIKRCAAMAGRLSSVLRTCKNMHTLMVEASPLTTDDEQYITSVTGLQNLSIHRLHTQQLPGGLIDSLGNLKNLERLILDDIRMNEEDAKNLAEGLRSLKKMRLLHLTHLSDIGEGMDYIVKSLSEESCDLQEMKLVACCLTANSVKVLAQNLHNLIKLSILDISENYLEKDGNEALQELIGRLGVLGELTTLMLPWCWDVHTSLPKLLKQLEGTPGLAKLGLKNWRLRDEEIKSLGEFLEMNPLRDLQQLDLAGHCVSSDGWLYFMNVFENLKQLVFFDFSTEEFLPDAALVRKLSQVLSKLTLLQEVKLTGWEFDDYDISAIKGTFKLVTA
Nature of the assay: NLRC4 inflammasome activation assay: IL-1β release, microglia from NLRP3 KO mice, LPS and flagellin. The assay is classed as cell-based. Particulars: 10 μM; microglia from NLRP3 KO mice, LPS and flagellin. Here is the method: AIM2, NLRP7, and NLRC4 inflammasomes activation assays. […] AIM2 inflammasome activation was induced through the addition of 100 ng/ml LPS for 2 hours, followed by transfection of 1 μg poly(dA:dT) using Lipofectamine 2000 during 2 hours, following the manufacturer recommendations. NLRC4 was activated by treatment with 150 ng/ml LPS for 2 hours, before transfection of 1 μg flagellin during 2 hours, using lipofectamine 2000 as transfection reagent. Negative and positive controls were pre-treated with the same DMSO percentage as cells treated with the inhibitors. Negative controls were kept untreated after DMSO addition, while LPS-poly(dA:dT) or LPS-flagellin was added to positive controls for AIM2, and NLRC4 activation, respectively. For activation of the NLRP7 inflammasome different conditions were assessed: treatment of WT microglia cultures with 400 ng/ml fibroblast-stimulating lipopeptide-1 (fsl-1) for 7 hours, priming with 150 ng/ml LPS for 1 hour and treatment with 400 ng/ml fsl-1 for 7 hours, and priming with 150 ng/ml LPS and transfection of 400 ng/ml fsl-1 with lipofectamine. MCC950 was used as a negative control for NLRC4 and AIM-2 inhibition. Cells were pretreated with 5 μM MCC950 before LPS addition, and 2 hours later the NLRC4 and AIM-2 activation was induced through addition of their specific activators. Cell supernatants were collected for IL-1β measurement.
as §1

The subject of assay [1] is ASC specks following NLRP3 activation. In words: ASC speck formation / ASC oligomerization in m-Cerulean ASC labeled macrophages. The assay is classed as cell-based, murine. As to conditions: 10 μM pretreatment, LPS and ATP, compared with DMSO-treated cells. Here is the method: m-Cerulean ASC labeled macrophages. NLRP3 Knock Out immortalized murine macrophages, stably expressing m-Cerulean-ASC, and NLRP3-Flag were a kind donation of Prof. Eicke Latz, (Institute of Innate Immunity, University of Bonn, Germany). Murine macrophages were maintained in high glucose DMEM medium supplemented with 10% FBS, 1% sodium pyruvate, and passaged every 2-3 days, before reaching confluence.
For ASC speck formation evaluation, murine macrophages were seeded in 96 well SCREENSTAR black microplates with clear base, 24 hours before stimulation. Then, cells were incubated for 1 hour with different concentrations of the inhibitors, or with the same DMSO volume for positive and negative controls for NLRP3 activation—DMSO-LPS-ATP or only DMSO, respectively. 0.5 μM MCC950 was used as a positive control for inhibition of NLRP3-mediated ASC oligomerization. NLRP3 activation was induced through treatment with 250 ng/ml LPS for 2.5 hours, followed by addition of 4.5 mM ATP for 45 min. Cells were then fixed and counterstained in a single step, as previously described (Stutz, A. et al. ASC Speck Formation as a Readout for Inflammasome Activation. in The Inflammasome (eds. De Nardo, C. M. & Latz, E.) vol. 1040 91-101 (Humana Press, 2013).). For that, a stock solution of DRAQS in formaldehyde was used, being the final concentrations 1% formaldehyde and 2.5 μM DRAQ5.
ASC oligomerization determination. […] ASC specks in cells pretreated with C75, C77, C78, and C97, before NLRP3 activation (as above indicated), were visualized with a widefield Leica DMi8 fluorescence microscope, using the 20× objective. […] For image analysis and speck quantification, ImageJ was used https://imagej.nih.gov/ij/index.html. Speck and nuclei quantification was performed as previously described in Stutz et al. When required (overlapping nuclei), the watershed separation algorithm was used to separate the particles. […] The rate of speck positive cells was calculated by normalizing the number of speck positive cells to the number of nuclei. […]

SMILES strings stand for the structures.

T1 sequence (Q8R4B8 whole entry): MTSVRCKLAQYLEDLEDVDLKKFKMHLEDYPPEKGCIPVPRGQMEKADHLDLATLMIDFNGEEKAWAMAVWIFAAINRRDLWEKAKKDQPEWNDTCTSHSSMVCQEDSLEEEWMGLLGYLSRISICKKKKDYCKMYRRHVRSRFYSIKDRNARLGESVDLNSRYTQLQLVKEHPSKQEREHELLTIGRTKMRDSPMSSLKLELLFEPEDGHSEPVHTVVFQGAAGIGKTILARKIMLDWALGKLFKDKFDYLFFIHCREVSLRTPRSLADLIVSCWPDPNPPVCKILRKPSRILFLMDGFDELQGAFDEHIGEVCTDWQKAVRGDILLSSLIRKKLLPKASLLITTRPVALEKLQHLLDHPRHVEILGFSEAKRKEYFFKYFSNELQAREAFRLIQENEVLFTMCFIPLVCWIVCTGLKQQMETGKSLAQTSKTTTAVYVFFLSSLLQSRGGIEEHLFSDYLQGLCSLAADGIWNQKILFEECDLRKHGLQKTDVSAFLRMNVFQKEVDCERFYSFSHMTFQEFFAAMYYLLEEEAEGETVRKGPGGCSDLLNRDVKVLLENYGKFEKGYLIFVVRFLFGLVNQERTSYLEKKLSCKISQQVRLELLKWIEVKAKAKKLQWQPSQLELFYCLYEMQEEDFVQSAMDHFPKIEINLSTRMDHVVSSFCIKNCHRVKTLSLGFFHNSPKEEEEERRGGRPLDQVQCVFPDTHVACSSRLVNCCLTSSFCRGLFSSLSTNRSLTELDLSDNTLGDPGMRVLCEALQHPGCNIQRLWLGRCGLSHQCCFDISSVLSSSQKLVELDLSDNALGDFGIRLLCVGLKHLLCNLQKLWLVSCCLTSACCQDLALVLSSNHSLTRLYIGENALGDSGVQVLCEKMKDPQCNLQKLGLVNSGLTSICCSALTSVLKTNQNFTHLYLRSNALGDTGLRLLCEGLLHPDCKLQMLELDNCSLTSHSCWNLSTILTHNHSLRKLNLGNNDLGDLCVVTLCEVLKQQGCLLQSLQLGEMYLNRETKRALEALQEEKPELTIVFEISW

As for `O=C(Cn1c(=O)oc2ccccc21)NCC(O)(c1ccoc1)c1ccco1` (stereo not shown) [Compound C75], on NLRP3 inflammasome, the “inhibition of IL-1β release upon NLRP3 activation” value was “completely prevented IL-1β secretion”, the IC50 worked out at 9.24 ± 1.06 µM and the remaining activity at 100 µM was 0%. In addition, at NLRC4 inflammasome, the “inhibition of NLRC4-mediated IL-1β production” value was “presented inhibitory power against the NLRC4 inflammasome”. In addition, the “rate of ASC speck positive cells” value in assay [1] is listed as “significantly reduced”.

With `O=C(Cn1c(=O)oc2ccccc21)NCCn1cc(-c2ccoc2)cn1` [Compound C78, N-(2-(4-(furan-3-yl)-1H-pyrazol-1-yl)ethyl)-2-(2-oxobenzoidloxazol-3(2H)-yl)acetamide], on NLRP3 inflammasome, the “inhibition of IL-1β release upon NLRP3 activation” value was “completely prevented IL-1β secretion”, the IC50 is 8.26 ± 1.16 µM and the remaining activity at 100 µM was determined as 0%. Moreover, at NLRC4 inflammasome, the “inhibition of NLRC4-mediated IL-1β production” value is recorded as “presented inhibitory power against the NLRC4 inflammasome”. For the same compound, the “rate of ASC speck positive cells” value in assay [1] is “significantly reduced”.

For the origin of these results see patent US20240158386A1, “BENZOXAZOLONE INHIBITORS OF INFLAMMASOMES” (ICAHN SCHOOL OF MEDICINE AT MOUNT SINAI, priority 2021, published 2024).
